# Target: T1, cis-aconitate decarboxylase (CAD) (Aspergillus terreus, UniProt Q0C8L3)
# T1 construct: Partial Purification of CAD from Itaconic Acid Producing A. Terreus; endogenous in cells; host or cells: Aspergillus terreus NRRL 1960 mycelium (cell free extract)
# Assay: Effect of the addition of stabilizing compounds on the CAD activity
# Format: biochemical, Aspergillus terreus NRRL 1960
# Conditions: * final concentration of 20 mM, PEG 20% w/v; for CAD activity after 48 h: stabilizer added to buffer; for Initial CAD Activity: stabilizer added to buffer of A. terreus cell free extract
# Method: The enzyme activity determination was essentially as described (Bentley et al., 1957 supra; Dwiarti et al., 2002, J Biosci Bioeng 94(1):29-33). 800 μl of 0.2 M sodium phosphate pH 6.5 was mixed with 100 μl 10 mM cis-aconitic acid and 100 μl protein solution and incubated for 20 till 60 min at 37° C. The reaction was stopped by the addition of 100 μl 12 M HCl. The amount of itaconic acid formed was determined by isocratic chromatography in 4 mM sulphuric acid on Bio-Rad Aminex HPX-87H column in a Dionex HPLC equipped with an UV detector at 215 nm. Calibration of the signal was accomplished by running a known amount of itaconic acid in a separate run. One unit (U) is one μmol of itaconic acid formed per minute. The same chromatographic assay was used to monitor the amount of itaconic acid formed in the broth of shake flasks or fermenter cultures as being indicative for cis-aconitate decarboxylase (CAD) induction. The protein concentration was measured according to Bradford with the Bio-Rad protein assay (Bradford, Anal Biochem 1976; 72:248-54).
# Approximately 1 g of frozen mycelium was transferred to a Teflon vessel and grinded with a metal ball for one minute using a dismembrator (Braun-Melsungen, Germany). Multiple batches of the powdered mycelium were resuspended in 10 ml 0.2 M sodium phosphate buffer pH 6.5 containing 1 mM DTT and 1 mM EDTA and allowed to hydrate at 0° C. for thirty minutes while mixing and centrifuged at 15000 g for 30 minutes at 4° C. to obtain the CFE.
# In the purification of CAD the inherent instability of the protein was noticed. […] To overcome this problem we adapted the purification method by the addition of potential stabilizers to the buffers (Table 2).
# [1] = after 48 h relative to initial CAD activity
# T1 sequence (Q0C8L3 whole entry): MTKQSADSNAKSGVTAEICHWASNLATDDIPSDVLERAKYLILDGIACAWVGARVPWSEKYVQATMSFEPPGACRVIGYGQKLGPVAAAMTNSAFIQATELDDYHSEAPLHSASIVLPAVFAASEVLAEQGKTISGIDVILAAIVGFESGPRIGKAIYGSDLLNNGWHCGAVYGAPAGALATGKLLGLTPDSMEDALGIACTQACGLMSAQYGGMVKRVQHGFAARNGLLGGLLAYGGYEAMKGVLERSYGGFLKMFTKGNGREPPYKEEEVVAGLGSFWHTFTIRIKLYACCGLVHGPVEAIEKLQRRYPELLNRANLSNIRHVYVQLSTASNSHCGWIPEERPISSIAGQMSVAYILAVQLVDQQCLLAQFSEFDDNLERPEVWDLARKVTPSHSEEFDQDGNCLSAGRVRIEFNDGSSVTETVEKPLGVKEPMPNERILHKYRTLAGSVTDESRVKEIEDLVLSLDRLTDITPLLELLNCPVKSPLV
SMILES,CAD activity after 48 h,remaining activity at 20000 µM [1],Initial CAD Activity,Remaining activity [1]
O=C1O[C@H]([C@@H](O)CO)C(O)=C1O [Ascorbic Acid],0.19 U/mL,14%,1.36 U/mL,–
O=C(O)c1ccccc1 [Benzoate],0.43 U/mL,–,1.36 U/mL,32%
O=S([O-])[O-].[Na+].[Na+] [Na2SO3],1.30 U/mL,–,1.48 U/mL,88%
